Consider 2 compounds from patent US6340770B1, “Platinum (IV) complex used as anti-cancer agent and preparing method thereof” (Sook Myung Women's University, priority 1999, dated 2002).

For series [1], the system named is L1210 cells. To be noted: literature value (J. Med. Chem. 1994, vol.37, No.10, 1471-1485); cited from earlier work.
Series [2] deals with L1210 cells. As to the kind of experiment: MTT assay, anti-cancer activity on L1210 cells in vitro. The class given is cell-based, mice. To be noted: L1210 cell. The method, then:
(§1) In order to examine anti-cancer activity of Pt(IV) complexes according to the present invention, MTT, i.e., [3-(4,5-dimethylthiazol-2-yl)-2,5-diphenyltetrazolium bromide] assay was performed on HL60 and L1210 which are leukemic cell of human and mice, respectively.
(§2) MTT assay is a quantitative color analysis based on that mitochondrial dehydrogenase, one of cell enzymes, changes yellow water-soluble MTT into deep-blue water-insoluble formazan, and the amount of the generated formazan is proportioned to active cell numbers.^122-124)
(§3) HL60 and L1210, suspended leukemic cells of humans and mice, respectively are used as cancer cells for determining the anti-cancer activity of the Pt (IV) complex according to the above Examples. They were obtained by cultivating the frozen cells alloted from Korean Cell Line Bank.
(§4) Cells were subject to subculture at the interval of 2-3 days at 37° C. in the presence of 5% CO2 in RPMI 1640 culture medium controlled to contain 1% penicillin-streptomycin (10,000 unit/ml) and 10% FBS, with keeping the cell number between 2×10^5/ml-5×10^5/ml.
(§5) Pt (IV) complexes prepared by the Examples of the present invention were used as pharmaceutical compounds. Among them, a water-soluble compound was used as it was, and a water-insoluble compound was used after dissolving in DMSO or 95% ethanol, adding PBS to be 2 mM concentarion, filtering with 0.2μ syringe filter to be sterile state and performing serial-dilution with a culture medium to control predetermined concentrations. The final concentration of DMSO or 95% ethanol in cell culture medium was controlled to be below 0.1%.
HL60 and L1210 cells were put into 96-well plate in the amount of 10^4/well and then stabilized for a half hour at 37° C. in the presence of 5% CO2.
(§6) After cultivating HL60 cell at 37° C. in the presence of 5% CO2 for 72 hours and L1210 for 48 hours, MTT reagent (2 mg/ml) was added 50 μl/well, and an additional cultivation was performed at 37° C. in the presence of 5% CO2 for 4 hours. Then, after centrifuging the resultant at 2000 rpm for 5 minites, the supernatant was removed by 170 μl/well.
(§7) Then, after adding DMSO 150 μl/well, the resultant was laid at 40° C. for 30 minutes and stirred for 3 minutes. Then, absorption test using ELISA reader was performed at 570 nm.
(§8) For calibration, a blank test was performed on the same 96-well plate under the same condition.
(§9) The above-described experiment was performed on more than 3 wells under the same condition with different concentration, and the same experiment was repeated over 3 times.

The test system of another series is HL60 cells. Put plainly: MTT assay, anti-cancer activity on HL60 cells in vitro. The class given is cell-based, human. Conditions: HL60 cell. The method, then:
as §1, §2, §3, §4, §5
HL60 and L1210 cells were put into 96-well plate in the amount of 10^4/well and then stabilized for a half hour at 37° C. in the presence of 5% CO2. […]
as §6, §7, §8, §9

The test system of a further series is male ICR mice. As to the kind of experiment: Nephrotoxicity test, serologic analysis (BUN, creatinine, uric acid) after i.p. injection. Further details: unit not given here. Conditions: serum, dose 8x IC50 (cisplatin 7x IC50), average ± SD of 5-6 ICR mice. It counts as in vivo. On the procedure: In order to serologically analyze nephrotoxicity of various Pt complexes, after injecting each agent intraperitneally, blood was exsanguinated after 6 hours, 1 day, 3 days and 7 days, respectively. Then, serum was seperated f rom the blood to detect the values of BUN (Blood urea nitrogen), creatinine and uric acid.^133)
As an experimental animal, male ICR mice each weighing about 25 g were purchased from Korean Experimental Animal Center. The experimental animals were bred in SPF(Specific Pathogen Free) room in Medical School of HanYang University, and food (purchased from SamYang) and water were supplied unrestrictedly.
The experimental animals were divided into a normal control group, a control group and an experimental group, and the experimental group was again divided into a cisplatin dispensing group, a 7(Ac)Cl treated group, a 7(TF)Cl treated group, a 7(Ac)M treated group, a 7(TF)M treated group and a 7FMN treated group.
Each groups comprised 20-22 mice, and each group was again divided into a 6 hour-treating group, a 1 day-treating group, a 3 day-treating group and a 7 day-treating group, which contains 5-6 mice, respectively.
First, a predetermined amount of agent was dissolved in DMSO or ethanol, and then PBS was added thereto to make the total volume be 6.6 ml. At this time, the content of DMSO or ethanol was controlled to be below 5%.
The agent dissolved in PBS was filtered using 0.2μ syringe filter, sterilized, and injected into intraperitoneally. Then, after 6 hours, 1 day, 3 days and 7 days, exsanguination was performed.
After seperating serum by centrifuging the blood exsanguinated from mice at 4,500 rpm for 15 minutes, the serum was kept at the temperature −20° C. BUN (Blood urea nitrogen), creatinine and uric acid were detected using a biochemical automatic analyzing apparatus (Olympus reply, Japan) and average and standard deviation were calculated from the obtained data.
Control group was dissolved in PBS and injected in dose of 6.6 ml/Kg.

The subject of series [3] is proximal renal tubule cells. As to the kind of experiment: Nephrotoxicity test, electron microscopic findings (TEM) of proximal renal tubule. It counts as in vivo, mice. On the procedure: In order to observe the ultra-structural changes of proximal renal tubule cells, a part of renal cortex of kidney was finely cut in the size of 1 mm^3, pre-fixed with 2% glutaraldehyde-2.5% paraformaldehyde solution, which is prepared with Millonig's phosphate buffer (pH 7.2) at 4° C. for 2-4 hours, and post-fixed with 1% osmium tetroxide for 2 hours, which is diluted with the same buffer solution. Then, after dehydrating the specimen according to ethanol-acetone concentration difference and embeding in Epon 812, it was made to be 2-5 μm thickness in thin section using ultramicrotome and temporarily stained with methylene blue to determine a proper site. Then, it was prepared tobe 60-80 nm thickness of the ultra-thin section, subject to double-staining with uranyl acetate and lead citrate, and observed with TEM (transmission electron microscope; Hitachi-600, Japan).

Where [4] appears, read: 1 Day after single i.p. injection.
Where [5] appears, read: 7 Day after single i.p. injection.
[6] abbreviates: 6 hour after single i.p. injection.
Setting [7] is: 3 day after single i.p. injection.

Turning to `[NH2][Pt]1([NH2])[O]C(=O)C2(CCC2)C(=O)[O]1` [carboplatin, cis-diamine(1,1-cyclobutanedicarboxylato)platinum(II)], in the series with L1210 cells [1], the “IC50 relative to that of cisplatin” value is given as “about 10 times”.
For the compound `CC(=O)[O][Pt]1([Cl])([Cl])([O]C(C)=O)[NH]CCCC[NH]1` [7(Ac)Cl, trans, cis-diacetato,dichloro-1,4-butanediamine Pt(IV) complex], the “anti-cancer activity (IC50) compared with cisplatin, in words” value in the series with L1210 cells [2] is recorded as “superior to cisplatin(CDDP)”; with HL60 cells it was “superior to that of cisplatin”. Also, the “BUN after the 1st time injection” value was determined as 19.4 ± 3.3 in the series with male ICR mice (setting [4]), 22.1 ± 3.4 with male ICR mice (setting [5]), 29.2 ± 1.8 with male ICR mice (setting [6]) and 19.2 ± 2.8 in the series on male ICR mice (setting [7]). Also, the “Uric acid after the 1st time injection” value is on record as 1.92 ± 0.4 in the series with male ICR mice (setting [4]), 1.74 ± 0.5 in the series on male ICR mice (setting [5]), 2.18 ± 1.0 in the series on male ICR mice (setting [6]) and 1.88 ± 0.6 with male ICR mice (setting [7]). The “nephrotoxicity compared with cisplatin (conclusion from serologic and electron microscopic analysis)” value in series [3] (7(Ac)Cl 6 mg/kg, 7(TF)Cl 5.3 mg/kg (8 times of IC50), cisplatin 6 mg/kg (7 times of IC50), i.p.) is reported as “weaker toxicity than cisplatin”. Moreover, in series [3] (one day after i.p. injection), the “ultra-structural changes of proximal renal tubule epithelial cells (TEM)” value is given as “cytoplasmic organelle damages”.
